# What was measured:
# [1] = molecular target: T1, human adenosine A3 receptors (Homo sapiens, UniProt P0DMS8); experiment: Reporter gene experiments in CHO cells (CRE/SPAP, inhibition of forskolin-stimulated SPAP production); type: cell-based; settings: ECR = equipotent concentration ratio relative to NECA = 1; agonist potency, CHO CRE/SPAP reporter gene assay
# T1 construct: expressed in transfected cells; host or cells: Chinese hamster ovary (CHO) cells with CRE/SPAP/HYG reporter
# T1 sequence (P0DMS8 1-318): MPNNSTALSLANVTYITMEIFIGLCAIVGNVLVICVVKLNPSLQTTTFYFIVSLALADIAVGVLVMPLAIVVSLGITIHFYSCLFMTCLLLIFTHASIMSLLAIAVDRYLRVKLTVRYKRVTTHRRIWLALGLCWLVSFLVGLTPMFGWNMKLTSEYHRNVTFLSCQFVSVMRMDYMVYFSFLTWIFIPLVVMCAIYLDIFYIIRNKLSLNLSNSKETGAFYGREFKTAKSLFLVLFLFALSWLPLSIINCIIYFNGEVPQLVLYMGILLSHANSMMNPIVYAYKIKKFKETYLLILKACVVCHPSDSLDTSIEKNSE
# Source text: The compounds useful in the invention are agonists at the adenosine A1 receptor. Preferably they are selective agonists at the adenosine A1 receptor. By selective is meant that the affinity for the A1 receptor is at least 2 times, preferably 5 times and more preferably 10 times greater than the other adenosine receptor subtypes, particularly A3. Agonist selectivity of compounds against other human adenosine receptors can be determined using Chinese hamster ovary (CHO) cells transfected with the gene for the relevant human adenosine receptor following a method based on that of Castanon, K V. and Spevak, W. (1994) Biochem. Biophys. Res. Commun. 198, 626-631. The CHO cells are also transfected with cyclic AMP response elements promoting the gene for secreted placental alkaline phosphatase (SPAP) (Wood, K V. (1995) Cuff. Opinion. Biotechnology, 6, 50-58). The effect of test compounds is determined by their effects on basal levels of cAMP (A2a) or on forskolin-enhanced cAMP (A1 and A3) as reflected by changes in levels of SPAP. EC50 values for compounds are determined as a ratio to that of the non-selective agonist N-ethyl carboxamidoadenosine (NECA). “Adenosine receptors: New opportunities for future drugs” (S. A. Poulsen et al, Bioorg. Med. Chem,. 1998, 6, 619-641) summarises disease conditions that may be treated with adenosine A1 agonists.
# Reporter Gene Experiments in CHO cells
# Agonist activity at human adenosine A3 receptors was measured in Chinese hamster ovary (CHO) cells containing the CRE/SPAP/HYG (CRE=cyclic AMP response element; HYG=hygromycin resistance; SPAP=secreted placental alkaline phosphatase) reporter gene elements, which upon stimulation of cAMP levels produced SPAP. A cell line was used which was stably transfected with the human adenosine A3 receptor in addition to the above elements. Cells were plated out in 96-well plates in culture medium and incubated at 37° C. for 1 hour. For measurement of potency, agonists were added to the appropriate wells at a concentration range of approximately 10^−10-10^−5M. 15 Min later, cAMP levels were stimulated by addition of a maximal concentration of forskolin. All cells were then incubated for a further 5 hours at 37° C., and cooled to room temperature, after which a substrate for the phosphatase (para-nitrophenol phosphate, pNPP), which is converted by SPAP to a coloured reagent) was then added and the 96-well plates were read in a plate reader. From these readings, the concentration-dependence of the inhibition by the agonist for forskolin-stimulated SPAP production can be calculated. As with the yeast assays, one of the agonists tested on each 96-well plate was the standard non-selective agonist, N-ethylcarboxamidoadenosine (NECA), and the potency of all test agonists is expressed relative to that of the NECA standard.
# [2] = molecular target: T2, human adenosine A1 receptors (Homo sapiens, UniProt P30542); experiment: Reporter gene experiments in yeast (agonist activity, β-galactosidase/FDG readout); type: cell-based; parameters: key: equipotent concentration ratio relative to NECA = 1; settings: ECR = equipotent concentration ratio relative to NECA = 1; agonist potency, yeast reporter gene assay
# T2 construct: expressed in transfected cells
# T2 sequence (P30542 1-326): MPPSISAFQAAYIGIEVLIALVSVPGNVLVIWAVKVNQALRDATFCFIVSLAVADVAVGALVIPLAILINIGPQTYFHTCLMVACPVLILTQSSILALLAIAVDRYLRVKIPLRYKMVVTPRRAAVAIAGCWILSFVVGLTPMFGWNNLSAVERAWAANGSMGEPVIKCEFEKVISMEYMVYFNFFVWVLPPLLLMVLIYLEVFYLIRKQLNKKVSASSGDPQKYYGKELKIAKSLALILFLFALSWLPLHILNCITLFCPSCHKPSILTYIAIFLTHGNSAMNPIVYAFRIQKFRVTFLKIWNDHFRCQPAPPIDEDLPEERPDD
# Description: Reporter Gene Experiments in Yeast
# Agonist activity at human adenosine A1 receptors was measured in yeast cell lines expressing the adenosine A1 receptor together with a chimeric G-protein which linked receptor stimulation to the expression of the enzyme β-galactosidase. Cells were plated out in 96-well plates in culture medium to which was added 2 mM 3-AT (3-aminotriazole) to limit basal growth in the absence of agonist stimulation, and FDG (fluorescein di-β-D-galactopyranoside) as substrate for β-galactosidase, which converts FDG to fluorescein. For measurement of potency, agonists were added to the appropriate wells at a concentration range of approximately 10^−10-10^−5M and incubated at 30° C. for 18 hours. At this point the amount of fluorescein generated was measured in a spectrophotometer. From these readings, the concentration-dependence of the stimulation by the agonist can be calculated. One of the agonists tested on each 96-well plate was the standard non-selective agonist, N-ethylcarboxamidoadenosine (NECA), and the potency of all test agonists is expressed relative to that of the NECA standard.
# (ECR=equipotent concentration ratio relative to NECA=1)
Adenosine A3 receptor ECR* [1],Adenosine A1 receptor ECR* [2],Compound
>145,4.79,"C#C[C@H]1O[C@@H](n2cnc3c(Nc4cccc(F)c4C)ncnc32)[C@H](O)[C@@H]1O [Example 37, (2R,3R,4S,5R)-5-ethynyl-2-{6-[(3-fluoro-2-methylphenyl)amino]-9H-purin-9-yl}tetrahydrofuran-3,4-diol]"
>145,5.45,"C#C[C@H]1O[C@@H](n2cnc3c(Nc4cccc(Cl)c4C)ncnc32)[C@H](O)[C@@H]1O [Example 38, (2R,3R,4S,5R)-2-{6-[(3-Chloro-2-methylphenyl)amino]-9H-purin-9-yl}-5-ethynyltetrahydrofuran-3,4-diol]"
>168,7.36,"C#C[C@H]1O[C@@H](n2cnc3c(Nc4ccc(Cl)cc4C)ncnc32)[C@H](O)[C@@H]1O [Example 39, (2R,3R,4S,5R)-2-{6-[(4-Chloro-2-methylphenyl)amino]-9H-purin-9-yl}-5-ethynyltetrahydrofuran-3,4-diol]"
>505,16.94,"C#C[C@H]1O[C@@H](n2cnc3c(Nc4cc(Cl)ccc4C)ncnc32)[C@H](O)[C@@H]1O [Example 40, (2R,3R,4S,5R)-2-{6-[(5-chloro-2-methylphenyl)amino]-9H-purin-9-yl}-5-ethynyltetrahydrofuran-3,4-diol]"
>188,34.9,"C#C[C@H]1O[C@@H](n2cnc3c(Nc4ccc(F)c(F)c4)ncnc32)[C@H](O)[C@@H]1O [Example 43, (2R,3R,4S,5R)-2-{6-[(3,4-Difluorophenyl)amino]-9H-purin-9-yl}-5-ethynyltetrahydrofuran-3,4-diol]"
>196,3,"(2R,3R,4S,5R)-2-[6-(cyclobutylamino)-9H-purin-9-yl]-5-ethynyltetrahydrofuran-3,4-diol [Example 5]"

Compound,Adenosine A3 receptor ECR* [1],Adenosine A1 receptor ECR* [2]
"(2R,3R,4S,5R)-5-Ethynyl-2-{6-[(trans-4-hydroxycyclohexyl)amino]-9H-purin-9-yl}tetrahydrofuran-3,4-diol [Example 19]",>3208,8.57

# Reference: patent US20040162422A1, “Chemical compounds” (priority 2001, published 2004)
